{"source": "patent US20050124618A1", "about": "“Methods of modulating angiogenesis and cancer cell proliferation” (priority 2003, published 2005)", "key": {"[1]": {"tested_on": "p42/p44 MAPK", "experiment": "Western blot of phospho-p42/p44 MAPK in 9L cells", "assay_type": "cell-based, rat", "details": "10 μM HET0016; 4 hr, 24 hr", "procedure": "They were then pelleted by centrifugation at 1,000 g for 5 min at 4° C. The cells were lysed by adding RIPA buffer [20 mM HEPES (pH 7.4), 100 mM NaCl, 1% Nonidet P-40, 0.1% SDS, 1% deoxycholic acid, 10% glycerol, 1 mM EDTA, 1 mM NaVO3, 50 mM NaF, and protease inhibitors Set 1 (Calbiochem, La Jolla, Calif.)]. The plates were then scraped and the cells were collected in a 1.5-ml centrifuge tube, followed by incubation on ice for 30 min. The cell homogenates were centrifuged for 10 min at 14,000 g and 4° C.; the pellets were discarded and the protein concentrations in the supernatant determined by bicinchoninic acid (BCA) protein assay.\nTypically, 20 μg of protein obtained from the cell homogenates was separated on a 14% Tris-glycine gel (Invitrogen) and transferred to a PVDF membrane (Biotrace, Bothell, Wash.). The membranes were blocked for 1 hr at room temperature with blocking buffer [0.2% I-Block reagent (Tropix, Bedford, Mass.), 0.1% Tween-20 in 1×PBS] and then incubated with the primary antibodies in blocking buffer overnight at 4° C. Phospho-p42/p44 MAPK (T202/Y204)(20G11), and phospho-SAPK/JNK (T183/Y185) (98F2) monoclonal antibodies were purchased from Upstate (Waltham, Mass.). […] Both phospho-p44/p42MAPK and phospho-SAPK/JNK were detected using 1:1000 antibody dilutions. […]"}, "[2]": {"tested_on": "U251 human glioma cells", "experiment": "[3H]thymidine incorporation in U251 cells", "assay_type": "cell-based", "details": "for inhibition at 10 µM: Homo sapiens", "procedure": "(§1) [^3H]Thymidine Incorporation Studies: Thymidine incorporation studies were performed with cells grown in 35-mm culture dishes. […] Palmitic acid and EtOH served as fatty acid and vehicle controls, respectively. At the end of the pulse, the medium was aspirated and the cells rinsed twice with cold 1× phosphate buffered saline (PBS). The rinsed cultures were fixed by exposure to cold 5% trichloracetic acid overnight at 4° C., after which fixed cells were extracted as described previously (Scholler et al., Mol. Pharmacol. 45: 944-954, 1994). A second set of non-fixed dishes was treated with 0.05% trypsin/EDTA to estimate cell numbers. [^3H]thymidine was detected by scintillation counting and expressed as dpm/10^3 cells."}, "[3]": {"tested_on": "9L rat gliosarcoma cells", "experiment": "[3H]thymidine incorporation in 9L cells", "assay_type": "cell-based", "details": "10 μM HET0016", "procedure": "as §1, with “served as nonspecific fatty acid” for “served as fatty acid”"}, "[4]": {"tested_on": "rat cornea", "experiment": "Rat cornea pocket angiogenesis assay (growth factor pellets)", "assay_type": "in vivo", "procedure": "(i) Preparation of sustained-release polymer: Sustained-release polymer pellets were prepared by making a 1:1 mix of a 12% solution in ethanol of the polymer (Hydron polyhydroxyethylmethacrylate), with saline containing the growth factors. The growth factors bFGF, VEGF, and EGF were dissolved at a concentration of 125 ng/μl. […] 2 μl of these solutions were added to each pellet. Thus, a pellet containing 250 ng of a single growth factor was implanted at random in the right or left eye. The other eye was implanted with a pellet containing the same dose of growth factor+HET0016. In some rats the pellet contained VEGF alone and VEGF+DDMS. 20 μg of the stable 20-HETE agonist analog WIT003 was implanted in one eye to determine whether it induces angiogenesis. […] 9 μl of the 1:1 Hydron/treatment mixture was placed on the ends of 1.5-cm rods. Each pellet contained 250 ng of its respective growth factor. For bFGF we used sucralfate to stabilize and allow sustained release of this growth factor (Volkin D B et al., Biochim Biophys Acta 1993, 1203:18-26). After drying the pellets for 1 hour, they were ready to be implanted into the cornea of rats.\n(ii) Pellet implantation: The rats were anesthetized IM with ketamine (80 mg/kg) and xylazine (10 mg/kg). The eyes were topically anesthetized with 0.5% proparacaine (Ophthetic, Alcon, Tex.) and the globes proptosed with a jeweler's forceps. Using an operating microscope, a central intrastromal linear keratotomy, approximately 1.5 mm in length, was performed with a surgical blade (Bard-Parker #11; Becton Dickinson, Franklin Lake, N.Y.) parallel to the insertion of the lateral rectus muscle. A curved iris spatula (No. 10093-13, Fine Science Tools, Belmont, Calif.) approximately 1.5 mm wide and 5 mm long was inserted under the lip of the incision and gently pushed through the stroma toward the temporal limbus of the eye. The distance between the limbus and the base of the pocket was kept at 1.0±0.1 mm. The pellet was advanced to the temporal end of the pocket. Antibiotic ointment (erythromycin) was applied to the anterior surface of the eye.\n(iv) Quantitation of corneal neovascularization: Seven days after pellet implantation, the rats were deeply anesthetized as previously described with ketamine and xylazine. The left ventricle was cannulated and the animal was perfused with 20-25 ml saline through the left ventricle followed by 20-25 ml India ink (waterproof drawing ink, Sanford, Bellwood, Ill.). The eyes were marked for orientation, enucleated and placed in 4% formalin for 24 hours. The cornea was dissected free from the surrounding globe and underlying iris, bisected, and loosely mounted between two glass slides, thus gently flattening the cornea. These flat mounts were examined microscopically using a Nikon Diaphot Epi-fluor 2 microscope attached to a CCD video camera and the images were digitized and saved using a computer.\nNeovascularization was determined by comparing total vessel length in the control and experimental eyes. Vessel length was determined by tracing each vessel from the limbus to the pellet. Total length is the sum of these values in pixels and was determined using conventional image analysis software (Sigma Scan Pro, SPSS, Chicago, Ill.)"}}, "note": "“Also recorded” adds a separate entry of the source. Read-outs that look alike come from different tables or passages of the source.", "data": [{"smiles": "CCCCc1ccc(N=CNO)c(C)c1", "note": "[HET0016, N-hydroxy-N′-(4-butyl-2 methylphenyl) formamidine]", "values": [{"measurement": "phosphorylation of p42/p44 MAPK", "setting": "[1]", "value": "decreases the phosphorylation; also recorded: significantly reduced the phosphorylation; also recorded: even greater after 24 hr"}, {"measurement": "inhibition of DNA synthesis ([3H]thymidine incorporation/uptake)", "setting": "[2]; 10 μM HET0016, approximately 48 hr", "value": 66, "unit": "%"}, {"measurement": "inhibition at 10 µM", "setting": "[2]; U-251, 10 μM HET0016, approximately 24 hr, read-out: inhibition of DNA synthesis ([3H]thymidine incorporation)", "value": 50, "unit": "%"}, {"measurement": "inhibition at 10 µM", "setting": "[2]; U-251, 10 μM HET0016, approximately 48 hr, read-out: inhibition of DNA synthesis ([3H]thymidine incorporation/uptake)", "value": 65, "unit": "%"}, {"measurement": "reduction of thymidine incorporation in 9L cultures", "setting": "[3]", "value": 60, "unit": "%"}, {"measurement": "angiogenic response to inhibitor alone", "setting": "[4]; 20 μg HET0016 or 10 μg DDMS per pellet, no growth factor", "value": "Neither HET0016 nor DDMS alone elicited a response different from saline"}, {"measurement": "effect on the angiogenic response to EGF", "setting": "[4]; EGF 250 ng/pellet + 20 μg HET0016", "value": "drastically decreased the angiogenic response; also recorded: obliterated; also recorded: blocks the angiogenic response"}, {"measurement": "reduction of angiogenic responses to VEGF", "setting": "[4]; VEGF 250 ng/pellet + 5 μg HET0016", "value": "about 50%"}, {"measurement": "effect on the angiogenic response to VEGF", "setting": "[4]; VEGF 250 ng/pellet + 20 μg HET0016, 7 days", "value": "almost completely abolished; also recorded: obliterated; also recorded: inhibit angiogenic responses to VEGF"}, {"measurement": "effect on the angiogenic response to VEGF", "setting": "[4]; VEGF 250 ng/pellet + 40 μg HET0016", "value": "almost completely abolished"}, {"measurement": "effect on the angiogenic response to bFGF", "setting": "[4]; bFGF 250 ng/pellet + 20 μg HET0016", "value": "drastically decreased the angiogenic response; also recorded: obliterated; also recorded: blocks the angiogenic response"}]}]}
